Laboratory results from the SangsterLogP compilation.

Columns and labels:
[1] = method code SF-AS, from DOI: 10.1002/qsar.19880070104; settings: pH 7.4

logP	logD [1]	Compound
3.18	–	Cc1cccc(C)c1OC(=O)c1cccc(CN2CCCC2)c1
3.2	–	Cc1cccc(C)c1OC(=O)c1ccc(CN2CCCC2)cc1
–	2.8	Cc1cccc(C)c1NC(=O)OCc1ccccc1CN1CCOCC1
–	3.47	Cc1cccc(C)c1OC(=O)OCc1cccc(CN2CCOCC2)c1
–	3.92	Cc1cccc(C)c1OC(=O)c1ccc(CN2CCOCC2)cc1
2.99	–	CCN(CC)Cc1cccc(C(=O)Oc2c(C)cccc2C)c1
–	3.48	Cc1cccc(C)c1OC(=O)c1ccccc1CN1CCOCC1
3.09	–	Cc1cccc(C)c1OC(=O)c1ccccc1CN1CCCC1
–	2.46	Cc1cccc(C)c1NC(=O)c1ccccc1CN1CCOCC1
–	3.76	Cc1cccc(C)c1OCc1ccc(CN2CCOCC2)cc1
–	1.85	Cc1cccc(C)c1NC(=O)OCc1cccc(CN2CCOCC2)c1
4.16	–	Cc1cccc(C)c1OCc1ccccc1CN1CCOCC1
3.5	–	Cc1cccc(C)c1OC(=O)c1ccc(CN2CCCCC2)cc1
–	2.2	Cc1cccc(C)c1NC(=O)OCc1ccc(CN2CCOCC2)cc1
–	3.74	Cc1cccc(C)c1OCc1cccc(CN2CCOCC2)c1
1.76	–	Cc1cccc(C)c1NC(=O)c1ccc(CN2CCOCC2)cc1
–	3.34	Cc1cccc(C)c1OC(=O)OCc1ccc(CN2CCOCC2)cc1
–	3.91	Cc1cccc(C)c1OC(=O)c1cccc(CN2CCOCC2)c1

Compound	logP	logD [1]
Cc1cccc(C)c1OC(=O)NCc1ccc(CN2CCOCC2)cc1	–	2.7
Cc1cccc(C)c1OC(=O)NCc1cccc(CN2CCOCC2)c1	–	2.91
Cc1cccc(C)c1OC(=O)NCc1ccccc1CN1CCOCC1	–	3.54
